Broadly, the pKi is the negative decadic logarithm of the Ki, by convention in mol/L.

SMILES strings stand for the structures. pKi: −log10 of the molar value.

T1 sequence (Q9Y5N1 with tags, fused parts or gaps): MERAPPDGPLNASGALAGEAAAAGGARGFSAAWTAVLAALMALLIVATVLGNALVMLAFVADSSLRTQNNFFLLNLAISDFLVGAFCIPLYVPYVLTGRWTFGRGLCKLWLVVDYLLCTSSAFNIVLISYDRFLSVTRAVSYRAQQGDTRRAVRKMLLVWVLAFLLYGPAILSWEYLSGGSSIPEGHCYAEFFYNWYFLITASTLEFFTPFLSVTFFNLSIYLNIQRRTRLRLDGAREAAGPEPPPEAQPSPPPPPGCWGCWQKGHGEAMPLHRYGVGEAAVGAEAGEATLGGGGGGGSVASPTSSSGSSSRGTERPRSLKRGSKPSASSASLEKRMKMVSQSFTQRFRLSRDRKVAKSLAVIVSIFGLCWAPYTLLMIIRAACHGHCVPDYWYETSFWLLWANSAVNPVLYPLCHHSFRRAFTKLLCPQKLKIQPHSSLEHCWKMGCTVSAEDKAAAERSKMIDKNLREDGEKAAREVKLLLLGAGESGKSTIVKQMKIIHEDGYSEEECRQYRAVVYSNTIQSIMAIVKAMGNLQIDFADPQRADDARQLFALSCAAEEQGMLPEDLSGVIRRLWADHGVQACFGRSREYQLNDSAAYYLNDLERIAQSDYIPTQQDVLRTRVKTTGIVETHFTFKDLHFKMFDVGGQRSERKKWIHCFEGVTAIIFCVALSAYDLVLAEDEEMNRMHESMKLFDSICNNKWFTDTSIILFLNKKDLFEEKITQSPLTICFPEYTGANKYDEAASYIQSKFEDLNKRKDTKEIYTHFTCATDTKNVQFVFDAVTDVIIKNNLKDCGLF

One assay has as its target T1, chimeric human H3 receptor (Homo sapiens, UniProt Q9Y5N1).
T1 construct: made in house; host or cells: Sf9 insect cells (baculovirus); P2 membrane preparation
In words: Chimeric human H3 receptor GTP binding assay (agonist-stimulated GTP-gamma35S binding, Example 7). Format: biochemical. Conditions: Table I; P2 membranes of Sf9 cells, 1 μM histamine as agonist, Ki from IC50 by Cheng-Prusoff. The gist of the method:
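Sf9 membranes co-expressing chimeric human H3 receptor and heterotrimeric G-protein, 35 μg/tube, in pH 7.4 Tris buffer with 10 μM GDP. Test compounds (10^−10–10^−6 M) competed against 1 μM histamine, […] GTP-gamma35S, 60 min at room temperature. Filter-bound radioactivity counted; IC50 converted to Ki by Cheng-Prusoff. Agonism/inverse agonism tested without histamine (EC50).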
A general note: GTPγS is a poorly hydrolysed GTP analogue; its binding reports G protein activation.
`COc1cc2c(cc1OC)CN(CC(=O)N1CCN(C3CCC3)CC1)CC2` [Compound 48, 2-[2-(4-cyclobutylpiperazin-1-yl)-2-oxoethyl]-6,7-dimethoxy-1,2,3,4-tetrahydroisoquinoline]: the pKi is > 6.00.

In the case of `COc1cc2c(cc1OC)CN(CC(=O)N1CCN(C3CCCCC3)CC1)CC2` [Compound 50, 2-[2-(4-cyclohexylpiperazin-1-yl)-2-oxoethyl]-6,7-dimethoxy-1,2,3,4-tetrahydroisoquinoline], the pKi was > 6.00.

As to `O=C(CN1CCn2c(Br)cnc2C1)N1CCN(C2CCC2)CC1` [Compound 81, 3-bromo-7-[2-(4-cyclobutylpiperazin-1-yl)-2-oxoethyl]-5,6,7,8-tetrahydroimidazo[1,2-a]pyrazine], the pKi is > 6.00.

Still in this assay, the particulars now being: Table II "Ki", symbol *; assay of Example 7.
Consider `CCN(CC)c1ccc(-c2ccc3c(c2)CCN(CC(=O)N2CCN(C4CCC4)CC2)C3)cc1` [Compound 625, 4-{2-[2-(4-cyclobutylpiperazin-1-yl)-2-oxoethyl]-1,2,3,4-tetrahydroisoquinolin-6-yl}-N,N-diethylaniline], for which the pKi was > 6.00.

On to `Cc1ccc(-c2ccc3c(c2)CCN(CC(=O)N2CCN(C4CCC4)CC2)C3)nc1` [Compound 629, 2-[2-(4-cyclobutylpiperazin-1-yl)-2-oxoethyl]-6-(5-methylpyridin-2-yl)-1,2,3,4-tetrahydroisoquinoline], for which the pKi is > 6.00.

As for `CC1CCCC1N1CCN(C(=O)CN2CCc3cc(-c4cncnc4)ccc3C2)C[C@@H]1C` (stereo partly drawn) [Compound 614, 2-{2-[(3S)-3-methyl-4-(2-methylcyclopentyl)piperazin-1-yl]-2-oxoethyl}-6-pyrimidin-5-yl-1,2,3,4-tetrahydroisoquinoline], the pKi was > 6.00.

For the compound `COc1ccc(-c2ccc3c(c2)CCN(CC(=O)N2CCN(C4CCCC4)CC2)C3)cc1` [Compound 521, 2-[2-(4-cyclopentylpiperazin-1-yl)-2-oxoethyl]-6-(4-methoxyphenyl)-1,2,3,4-tetrahydroisoquinoline], the pKi is > 6.00.

Staying with this assay, now noted: Table II; "*" = Ki in assay of Example 7 less than 1 micromolar.
For `CC1CCC[C@H]2CN(C(=O)CN3CCc4nc(Cl)ccc4C3)CCN12` (stereo in doubt) [Compound 174, 2-chloro-6-[2-(6-methyloctahydro-2H-pyrido[1,2-a]pyrazin-2-yl)-2-oxoethyl]-5,6,7,8-tetrahydro-1,6-naphthyridine], the pKi was > 6.00.

With `Cc1ccc(-n2cc3c(n2)CCN(CC(=O)N2CCN(C4CCC4)CC2)C3)nn1` [Compound 200, 5-[2-(4-cyclobutylpiperazin-1-yl)-2-oxoethyl]-2-(6-methylpyridazin-3-yl)-4,5,6,7-tetrahydro-2H-pyrazolo[4,3-c]pyridine], the pKi is > 6.00.

`COc1ccc(-c2ccc3c(c2)CCN(CC(=O)N2CCN(C4CCC4)CC2)C3)cn1` [Compound 95, 2-[2-(4-cyclobutylpiperazin-1-yl)-2-oxoethyl]-6-(6-methoxypyridin-3-yl)-1,2,3,4-tetrahydroisoquinoline]: the pKi was > 6.00.

As for `O=C(CN1CCc2nc(-n3cccn3)ncc2C1)N1CCN(C2CCC2)CC1` [Compound 275, 6-[2-(4-cyclobutylpiperazin-1-yl)-2-oxoethyl]-2-(1H-pyrazol-1-yl)-5,6,7,8-tetrahydropyrido[4,3-d]pyrimidine], the pKi was > 6.00.

Consider `O=C(CN1CCc2sc(-c3cncnc3)cc2C1)N1CCN(C2CCC2)CC1` [Compound 269, 5-[2-(4-cyclobutylpiperazin-1-yl)-2-oxoethyl]-2-pyrimidin-5-yl-4,5,6,7-tetrahydrothieno[3,2-c]pyridine], for which the pKi was > 6.00.

For `CC1CCCC2CN(C(=O)CN3CCc4cc(-c5cccnn5)ccc4C3)CCN12` (stereo not drawn) [Compound 165, 6-methyl-2-[(6-pyridazin-3-yl-3,4-dihydroisoquinolin-2(1H)-yl)acetyl]octahydro-2H-pyrido[1,2-a]pyrazine], the pKi was > 6.00.

In the case of `CC(O)Cc1ccc2c(c1)CCN(CC(=O)N1CCN(C3CCC3)CC1)C2` (stereo not drawn) [Compound 250, 1-{2-[2-(4-cyclobutylpiperazin-1-yl)-2-oxoethyl]-1,2,3,4-tetrahydroisoquinolin-6-yl}propan-2-ol], the pKi is > 6.00.

On to `O=C(CN1CCc2cc(-c3ccccn3)ccc2C1)N1CCN(C2CCC2)CC1` [Compound 130, 2-[2-(4-cyclobutylpiperazin-1-yl)-2-oxoethyl]-6-pyridin-2-yl-1,2,3,4-tetrahydroisoquinoline], for which the negative logarithm of the Ki (pKi) was > 6.00.

The same assay, now with this note: Table II; assay of Example 7.
For the compound `O=C(CN1CCc2nn(C3CCCC3)cc2C1)N1CCN(C2CCC2)CC1` [Compound 684, 5-[2-(4-cyclobutylpiperazin-1-yl)-2-oxoethyl]-2-cyclopentyl-4,5,6,7-tetrahydro-2H-pyrazolo[4,3-c] pyridine], the pKi is > 6.00.

Staying with this assay, now noted: assay of Example 7; "*" in Ki of Table II.
`O=C(CN1CCc2nc(-c3ccccc3C(F)(F)F)sc2C1)N1CCN(C2CCC2)CC1` [Compound 360, 5-[2-(4-cyclobutylpiperazin-1-yl)-2-oxoethyl]-2-[2-(trifluoromethyl)phenyl]-4,5,6,7-tetrahydro[1,3]thiazolo [5,4-c]pyridine]: the pKi is > 6.00.

Consider `Cc1cnc(-n2cc3c(n2)CCN(CC(=O)N2CCN(C4CCC4)CC2)C3)nc1` [Compound 289, 5-[2-(4-cyclobutylpiperazin-1-yl)-2-oxoethyl]-2-(5-methylpyrimidin-2-yl)-4,5,6,7-tetrahydro-2H-pyrazolo[4,3-c]pyridine], for which the pKi is > 6.00.

With `Cc1ccc(-n2ncc3c2CCN(CC(=O)N2CCN(C4CCC4)CC2)C3)nn1` [Compound 288, 5-[2-(4-cyclobutylpiperazin-1-yl)-2-oxoethyl]-1-(6-methylpyridazin-3-yl)-4,5,6,7-tetrahydro-1H-pyrazolo[4,3-c]pyridine], the pKi is > 6.00.

As for `O=C(CN1CCc2nc(-c3cc(Cl)ccc3Cl)sc2C1)N1CCN(C2CCC2)CC1` [Compound 364, 5-[2-(4-cyclobutylpiperazin-1-yl)-2-oxoethyl]-2-(2,5-dichlorophenyl)-4,5,6,7-tetrahydro[1,3]thiazolo [5,4-c]pyridine], the pKi is > 6.00.

For the compound `COc1ccc(-n2ncc3c2CCN(CC(=O)N2CCN(C4CCC4)CC2)C3)nn1` [Compound 290, 5-[2-(4-cyclobutylpiperazin-1-yl)-2-oxoethyl]-1-(6-methoxypyridazin-3-yl)-4,5,6,7-tetrahydro-1H-pyrazolo[4,3-c]pyridine], the pKi was > 6.00.

In the case of `CCC(C)N1CCN(C(=O)CN2CCc3cc(-c4cncnc4)ccc3C2)CC1` (stereo not drawn) [Compound 397, 2-[2-(4-sec-butylpiperazin-1-yl)-2-oxoethyl]-6-pyrimidin-5-yl-1,2,3,4-tetrahydroisoquinoline], the pKi is > 6.00.

On to `Cc1cc(-c2nc3c(s2)CN(CC(=O)N2CCN(C4CCC4)CC2)CC3)ccc1F` [Compound 303, 5-[2-(4-cyclobutylpiperazin-1-yl)-2-oxoethyl]-2-(4-fluoro-3-methylphenyl)-4,5,6,7-tetrahydro[1,3]thiazolo [5,4-c]pyridine], for which the negative-log Ki (pKi) was > 6.00.

As for `O=C(CN1CCc2cc(-c3ccc(=O)n(CC(F)(F)F)c3)ccc2C1)N1CCN(C2CCC2)CC1` [Compound 283, 5-{2-[2-(4-cyclobutylpiperazin-1-yl)-2-oxoethyl]-1,2,3,4-tetrahydroisoquinolin-6-yl}-1-(2,2,2-trifluoroethyl)pyridin-2(1H)-one], the pKi is > 6.00.

Source of the values: patent US20110082130A1 (LIGAND PHARMACEUTICALS, INC., priority 2006, published 2011).
